Tests used:
[1] = system: NOD mice transgenic for HLA DQ8 (NOD-DQ8); assay: NOD-DQ8 mice orally challenged with gliadin; type: in vivo, mouse
Source text: In the second model of gluten sensitivity, the Applicant resorted to non-obese diabetic (NOD) female mice, which spontaneously develop autoimmune type-1 diabetes (Maurano, F., et al. 2005).
BALB/c mice (background BALB/cAnNCrl) were purchased from Charles River (Varese, Italy). Three generation gluten-free diet (Mucedola srl, Milan), male and female, were challenged with gliadin for 4 weeks. […]
Chambers for mounting either transwell cell cultures or mouse tissue biopsies were obtained from Physiologic Instruments (model P2300, San Diego, Calif., USA). […] Shortcircuit current (expressed as Isc (μA/cm2)) and resistance were acquired or calculated using the VCC600 transepithelial clamp from Physiologic Instruments and the Acquire & Analyze 2.3 software for data acquisition (Physiologic Instruments), as previously described Tosco A, et al. 2016; Romani, L. et al. 2017).
ELISA analysis was performed on tissue samples using standard ELISA kits (R&D Systems) for IL-15, IL-17A, INFγ IL21, IL10, TGF-β. […] Samples were read in triplicate at 450 nm in a Microplate Reader (BioRad, Milan, Italy) using Microplate Manager 5.2.1 software. Values were normalized to protein concentration evaluated by Bradford analysis. […]

[2] = system: recombinant human NBD1 (rhNBD1); assay: Surface plasmon resonance peptide-protein interaction; type: binding
Description: Peptide-protein interactions were studied using a Biacore™ T100 (GE Healthcare) instrument. hrNBD1 domain or the indicated biotinylated peptides were immobilized by thiol coupling on a CMS (series S) sensor chip to a final density of 2000 resonance units (RU) or by biotin-streptavidin capture on a SA (series S) sensor chip to a final density of 250 RU, respectively. A flow cell with no immobilized protein or peptide was used as control. Binding analysis was carried out at 20° C. in a running buffer consisting of 10 mM HEPES, pH 7.4, 150 mM NaCl, 0.05% (v/v) Tween-20, 2 mM ATP, 5 mM MgCl2, 1 mM DTT applying a flow rate of 20 μl/min. For each experiment a Biacore™ method program was used. It included a series of three start up injections (running buffer), zero control (running buffer) and different concentrations of ligand. […] Each sensorgram (time-course of the surface plasmon resonance signal) was corrected for the response obtained in the control flow cell and normalized to baseline. Data were analysed using the 2.0.3 BIAevaluation software (GE Healthcare). At least three independent experiments for each analysis were performed.
FIG. 2: a, Protein-Protein docking and Molecular Dynamics of P31-43 (violet) bound to NBD1 (orange). Left side: general view of P31-43 and NBD1 interaction. Upper right: detailed interaction pattern, highlighting the most important amino acids. Lower right: in silico NBD1/P31-43 complex compared to the original crystallographic positions of Tip 401 and ATP. b, Graphical view of the in silico sampling percentage of P31-43 against NBD1/NBD2 (left 10 panel), and of P31-43/4QA (4QA) against NBD1 (right panel). c-d, Surface plasmon resonance (SPR) analysis of rhNBD1 binding to P31-43 and P57-68 biotinylated peptides immobilized on SA sensor chip (c) and of increasing concentrations of P31-43 and P57-68 peptides 15 on rhNBD1 covalently bound to the CMS sensor chip (d).

| Compound | effect on gliadin-induced increase of IFN-γ [1] | interaction with rhNBD1 in the flow phase ([2]; SPR, peptide immobilized on sensor chip) | SPR signal on immobilized rhNBD1 ([2]; rhNBD1 immobilized on chip, different peptide concentrations) |
| --- | --- | --- | --- |
| CC(C)(C)c1cc(C(C)(C)C)c(NC(=O)c2c[nH]c3ccccc3c2=O)cc1O [VX-770, N-(2,4-di-tert-butyl-5-hydroxyphenyl)-4-oxo-1,4-dihydroquinoline-3-carboxamide] | counteracted the gliadin-induced increase of IFN-γ | – | – |
| α-gliadin peptide LGQQQPFPPQQPY (SEQ ID 1), induces an enterocyte stress response (P31-43 sequence of alpha-gliadin) | – | confirmed the predicted interaction | yielded a dose-dependent signal |
